# Data reported in PubChem BioAssay (NCI).
#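 Compound exposure: 48 hours, 5 concentrations, 96-well plates. TGI marks complete inhibition of growth.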
# Legend:
# Assay in all cases: DTP human tumour cell line panel, 48 h
# [1] = test system: M14 melanoma
# [2] = test system: IGROV1 ovarian
# [3] = test system: MOLT-4 leukemia
# [4] = test system: SK-MEL-2 melanoma
# [5] = test system: UO-31 renal
# [6] = test system: MDA-N
# [7] = test system: SF-268 CNS
# [8] = test system: A549 NSCLC
# [9] = test system: EKVX NSCLC
# [10] = test system: SF-295 CNS
# [11] = test system: 786-0 renal
# [12] = test system: SK-MEL-5 melanoma
# [13] = test system: SNB-75 CNS
# [14] = test system: SNB-19 CNS
# [15] = test system: RXF 393 renal
# [16] = test system: U251 CNS
# [17] = test system: BT-549 breast
# [18] = test system: NCI-H23 lung
# [19] = test system: CCRF-CEM leukemia
# [20] = test system: LOX IMVI melanoma
# [21] = test system: SF-539 CNS
# [22] = test system: TK-10 renal
# [23] = test system: DU-145 prostate
# [24] = test system: HS 578T breast
# [25] = test system: HCT-15 colon
# [26] = test system: SW-620 colon
# [27] = test system: OVCAR-8 ovarian
# [28] = test system: SN12C renal
# [29] = test system: MALME-3M melanoma
# [30] = test system: SK-MEL-28 melanoma
# [31] = test system: UACC-62 melanoma
# [32] = test system: RPMI-8226 leukemia
# [33] = test system: HCT-116 colon
# [34] = test system: MDA-MB-435
# [35] = test system: OVCAR-5 ovarian
# [36] = test system: K-562 leukemia
# [37] = test system: A498 renal
# [38] = test system: NCI-H226 lung
# [39] = test system: SK-OV-3 ovarian
# [40] = test system: NCI-H460 lung
# [41] = test system: MDA-MB-231 breast
# [42] = test system: OVCAR-3 ovarian
# [43] = test system: HL-60(TB) leukemia
# [44] = test system: CAKI-1 renal
# [45] = test system: NCI/ADR-RES ovarian
# [46] = test system: ACHN renal
# [47] = test system: COLO 205 colon
# [48] = test system: NCI-H522 lung
# [49] = test system: HT29 colon
# [50] = test system: UACC-257 melanoma
# [51] = test system: PC-3 prostate
# [52] = test system: KM12 colon
# [53] = test system: MCF7 breast
# [54] = test system: HOP-62 NSCLC
# [55] = test system: T-47D breast
# [56] = test system: HOP-92 NSCLC
# [57] = test system: HCC-2998 colon
# [58] = test system: OVCAR-4 ovarian
# [59] = test system: SR leukemia
structure (smiles),measurement,setting,value
O=Cc1c(C(=O)O)[nH]c(=O)[nH]c1=O,TGI,[1],> 100 µM
same,TGI,[2],> 100 µM
same,TGI,[3],> 100 µM
same,TGI,[4],> 100 µM
same,TGI,[5],> 100 µM
same,TGI,[6],> 100 µM
same,TGI,[7],> 100 µM
same,TGI,[8],> 100 µM
same,TGI,[9],> 100 µM
same,TGI,[10],> 100 µM
same,TGI,[11],> 100 µM
same,TGI,[12],> 100 µM
same,TGI,[13],> 100 µM
same,TGI,[14],> 100 µM
same,TGI,[15],> 100 µM
same,TGI,[16],> 100 µM
same,TGI,[17],> 100 µM
same,TGI,[18],> 100 µM
same,TGI,[19],> 100 µM
same,TGI,[20],> 100 µM
same,TGI,[21],> 100 µM
same,TGI,[22],> 100 µM
same,TGI,[23],> 100 µM
same,TGI,[24],> 100 µM
same,TGI,[25],> 100 µM
same,TGI,[26],> 100 µM
same,TGI,[27],> 100 µM
same,TGI,[28],> 100 µM
same,TGI,[29],> 100 µM
same,TGI,[30],> 100 µM
same,TGI,[31],> 100 µM
same,TGI,[32],> 100 µM
same,TGI,[33],> 100 µM
same,TGI,[34],> 100 µM
same,TGI,[35],> 100 µM
same,TGI,[36],> 100 µM
same,TGI,[37],> 100 µM
same,TGI,[38],> 100 µM
same,TGI,[39],> 100 µM
same,TGI,[40],> 100 µM
same,TGI,[41],> 100 µM
same,TGI,[42],> 100 µM
same,TGI,[43],> 100 µM
same,TGI,[44],> 100 µM
same,TGI,[45],> 100 µM
same,TGI,[46],> 100 µM
same,TGI,[47],> 100 µM
same,TGI,[48],> 100 µM
same,TGI,[49],> 100 µM
same,TGI,[50],> 100 µM
same,TGI,[51],> 100 µM
same,TGI,[52],> 100 µM
COc1cc(/C=C2\C(=O)N(c3ccccc3)C(c3ccccc3)S2(=O)=O)cc(OC)c1OC (stereo not given),TGI,[1],> 100 µM
same,TGI,[53],> 100 µM
same,TGI,[3],> 100 µM
same,TGI,[4],> 100 µM
same,TGI,[5],> 100 µM
same,TGI,[6],48.3 µM
same,TGI,[7],> 100 µM
same,TGI,[8],> 100 µM
same,TGI,[9],> 100 µM
same,TGI,[10],> 100 µM
same,TGI,[11],> 100 µM
same,TGI,[12],> 100 µM
same,TGI,[54],> 100 µM
same,TGI,[55],> 100 µM
same,TGI,[14],> 100 µM
same,TGI,[15],92.2 µM
same,TGI,[16],> 100 µM
same,TGI,[17],> 100 µM
same,TGI,[18],> 100 µM
same,TGI,[19],56.8 µM
same,TGI,[20],> 100 µM
same,TGI,[21],> 100 µM
same,TGI,[22],> 100 µM
same,TGI,[23],> 100 µM
same,TGI,[24],> 100 µM
same,TGI,[25],> 100 µM
same,TGI,[26],> 100 µM
same,TGI,[27],> 100 µM
same,TGI,[28],> 100 µM
same,TGI,[29],> 100 µM
same,TGI,[30],> 100 µM
same,TGI,[31],> 100 µM
same,TGI,[32],92.3 µM
same,TGI,[33],> 100 µM
same,TGI,[34],> 100 µM
same,TGI,[35],> 100 µM
same,TGI,[56],> 100 µM
same,TGI,[36],> 100 µM
same,TGI,[37],> 100 µM
same,TGI,[38],> 100 µM
same,TGI,[39],> 100 µM
same,TGI,[40],> 100 µM
same,TGI,[57],> 100 µM
same,TGI,[41],> 100 µM
same,TGI,[58],> 100 µM
same,TGI,[42],> 100 µM
same,TGI,[43],> 100 µM
same,TGI,[44],> 100 µM
same,TGI,[45],> 100 µM
same,TGI,[46],> 100 µM
same,TGI,[47],> 100 µM
same,TGI,[48],> 100 µM
same,TGI,[59],> 100 µM
same,TGI,[49],94.1 µM
same,TGI,[50],> 100 µM
same,TGI,[52],> 100 µM
COc1cc(Cn2c3c(c4cc(O)ccc42)Cc2ccccc2C3=O)cc(OC)c1,TGI,[1],> 100 µM
same,TGI,[2],> 100 µM
same,TGI,[53],78.6 µM
same,TGI,[3],> 100 µM
same,TGI,[4],> 100 µM
same,TGI,[5],> 100 µM
same,TGI,[6],> 100 µM
same,TGI,[7],> 100 µM
same,TGI,[8],> 100 µM
same,TGI,[10],93.9 µM
same,TGI,[11],> 100 µM
same,TGI,[12],> 100 µM
same,TGI,[54],> 100 µM
same,TGI,[13],58.5 µM
same,TGI,[14],> 100 µM
same,TGI,[15],> 100 µM
same,TGI,[16],> 100 µM
same,TGI,[17],> 100 µM
same,TGI,[18],> 100 µM
same,TGI,[19],86 µM
same,TGI,[20],> 100 µM
same,TGI,[21],> 100 µM
same,TGI,[22],> 100 µM
same,TGI,[23],> 100 µM
same,TGI,[24],> 100 µM
same,TGI,[25],> 100 µM
same,TGI,[26],> 100 µM
same,TGI,[27],> 100 µM
same,TGI,[28],57.3 µM
same,TGI,[29],> 100 µM
same,TGI,[30],> 100 µM
same,TGI,[31],> 100 µM
same,TGI,[32],26.5 µM
same,TGI,[33],> 100 µM
same,TGI,[34],> 100 µM
same,TGI,[35],56.2 µM
same,TGI,[36],> 100 µM
same,TGI,[37],> 100 µM
same,TGI,[38],> 100 µM
same,TGI,[39],> 100 µM
same,TGI,[40],> 100 µM
same,TGI,[41],> 100 µM
same,TGI,[58],> 100 µM
same,TGI,[42],> 100 µM
same,TGI,[43],> 100 µM
same,TGI,[44],> 100 µM
same,TGI,[45],66.1 µM
same,TGI,[47],> 100 µM
same,TGI,[59],53.3 µM
same,TGI,[49],> 100 µM
same,TGI,[50],> 100 µM
same,TGI,[51],> 100 µM
same,TGI,[52],> 100 µM
CCN(CC)CCNc1nc2ccc([N+](=O)[O-])cc2[n+]([O-])n1,TGI,[1],41.2 µM
same,TGI,[2],38.3 µM
same,TGI,[53],9.86 µM
same,TGI,[3],50.6 µM
same,TGI,[4],35.3 µM
same,TGI,[5],> 100 µM
same,TGI,[6],29.5 µM
same,TGI,[7],> 100 µM
same,TGI,[8],61 µM
same,TGI,[10],82.1 µM
same,TGI,[11],> 100 µM
same,TGI,[12],22.3 µM
same,TGI,[55],40.6 µM
same,TGI,[13],> 100 µM
same,TGI,[14],> 100 µM
same,TGI,[15],> 100 µM
same,TGI,[16],77.2 µM
same,TGI,[17],> 100 µM
same,TGI,[18],47.4 µM
same,TGI,[19],85.3 µM
same,TGI,[21],54.2 µM
same,TGI,[22],> 100 µM
same,TGI,[23],> 100 µM
same,TGI,[25],39.8 µM
same,TGI,[26],64.1 µM
same,TGI,[27],43.1 µM
same,TGI,[28],54.9 µM
same,TGI,[29],4.28 µM
same,TGI,[30],> 100 µM
same,TGI,[31],35 µM
same,TGI,[32],44.9 µM
same,TGI,[33],49.6 µM
same,TGI,[34],29.5 µM
same,TGI,[35],31.7 µM
same,TGI,[56],> 100 µM
same,TGI,[36],54.3 µM
same,TGI,[37],49.7 µM
same,TGI,[38],> 100 µM
same,TGI,[40],56.8 µM
same,TGI,[57],44.8 µM
same,TGI,[41],33.1 µM
same,TGI,[58],26.5 µM
same,TGI,[42],> 100 µM
same,TGI,[43],17.9 µM
same,TGI,[44],> 100 µM
same,TGI,[45],70.5 µM
same,TGI,[46],> 100 µM
same,TGI,[47],18.6 µM
same,TGI,[48],> 100 µM
same,TGI,[59],> 100 µM
same,TGI,[49],52.1 µM
same,TGI,[50],31.2 µM
same,TGI,[51],75.3 µM
same,TGI,[52],> 100 µM
